Experimental data: patent publication US9296745B2, “Diacylglycerol acyltransferase 2 inhibitors” (Pfizer Inc., priority 2012, dated 2016)
Where two headings read alike, the source gives them in different places.

Columns and labels:
DGAT2 = DGAT2 (Homo sapiens (Human), UniProt Q96PD7); assay: IC50 determination for DGAT2 inhibitors in human hepatocytes ([1,3-14C]-glycerol incorporation into lipids); format: cell-based; details: average IC50; cryopreserved human hepatocytes, selective DGAT1 inhibitor (3 μM) in all wells, 3 hour incubation with [1,3-14C]-glycerol; read-out: IC50 (nM) in primary human hepatocyte
Chain of DGAT2 (Q96PD7 whole entry): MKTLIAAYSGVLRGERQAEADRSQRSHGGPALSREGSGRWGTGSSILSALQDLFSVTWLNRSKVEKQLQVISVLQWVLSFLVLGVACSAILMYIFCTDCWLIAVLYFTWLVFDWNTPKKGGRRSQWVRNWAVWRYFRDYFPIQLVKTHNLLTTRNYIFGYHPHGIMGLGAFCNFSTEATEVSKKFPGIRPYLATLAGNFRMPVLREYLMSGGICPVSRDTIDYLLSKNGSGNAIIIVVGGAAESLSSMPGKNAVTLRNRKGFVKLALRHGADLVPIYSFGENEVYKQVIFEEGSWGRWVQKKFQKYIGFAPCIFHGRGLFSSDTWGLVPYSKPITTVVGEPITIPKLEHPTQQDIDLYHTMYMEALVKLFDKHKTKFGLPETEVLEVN
Method: For evaluation of the effects of DGAT2 inhibitors in a cell-based setting, cryopreserved human hepatocytes (Lot QOC, Celsis, Chicago, Ill.) were thawed and plated onto type I collagen-coated plates according to the manufacturer's instructions. After 24 hours overnight recovery period, the cells were overlayed with media containing 250 μg/ml Matrigel (BD Biosciences, San Jose, Calif.). The following day, media was aspirated and replaced with serum-free Williams Media E (Life Technologies, Grand Island, N.Y.) containing 400 μM sodium dodecanoate (Sigma-Aldrich, St. Louis, Mo.). Forty minutes later, DGAT2 inhibitors (prepared as 100× stocks in 25% DMSO, 75% Williams' Media E) were added to the desired final concentration. […] After a 20 minute preincubation, 0.2 μCi [1,3-^14C]-glycerol (American Radio Chemicals, St. Louis, Mo.) was added to each well and mixed by gentle pipetting prior to a 3 hour incubation. At this point, media was aspirated and the cells were lysed in isopropyl alcohol:tetrahydrofuran (9:1) prior to centrifugation at 3000 rpm for 5 minutes. Radiolabeled lipids were resolved using a 2-solvent system by thin layer chromatography using standard technique (solvent 1 contained ethyl acetate: isopropyl alcohol: chloroform:methanol:0.25% potassium chloride in water (100:100:100:40.2:36.1, v/v/v/v) and solvent 2 contained hexane: diethyl ether: acetic acid (70:27:3, v/v/v)). After separation, radiolabeled lipids were visualized using a Molecular Dynamics' PhosphorImager system. The half maximal inhibitory concentrations (IC50 values) were determined using Graph Pad Prism (GraphPad Software, Inc., La Jolla, Calif.).

Human DGAT2 (hDGAT2) = Human DGAT2 (hDGAT2) (Homo sapiens (Human), UniProt Q96PD7); assay: In vitro DGAT2 assay, IC50 determination with hDGAT2 membrane fraction; format: biochemical
Chain of Human DGAT2 (hDGAT2) (Q96PD7 whole entry): as above
In short: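 CHAPS-solubilized membrane fraction of FLAG-tagged hDGAT2 from baculovirus-infected SF9 cells (0.01 mg/mL) in 100 mM Hepes-NaOH pH 7.4, 20 mM MgCl2, 200 nM methyl arachidonyl fluorophosphonate; compounds pre-incubated 20 min with 0.04% BSA. Reaction 40 min at room temperature, stopped with H3PO4. [^14C]tridecanoylglycerol in organic phase counted; 11-point geometric mean IC50.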

[1] = geometric mean, background for complete inhibition of DGAT2 obtained with 50 μM (1R,2R)-2-({3′-Fluoro-4′-[(6-fluoro-1,3-benzothiazol-2-yl)amino]-1,1′-biphenyl-4-yl}carbonyl)cyclopentanecarboxylic acid, read-out: DGAT2 IC50
[2] = geometric mean, background for complete inhibition of DGAT2 obtained with Example 196-A instead of the cyclopentanecarboxylic acid reference, read-out: DGAT2 IC50 (nM), values in the parentheses

Compound	IC50 (DGAT2) [nM]	IC50 (Human DGAT2 (hDGAT2); [1]) [nM]	IC50 (Human DGAT2 (hDGAT2); [2]) [nM]	IC50 (Human DGAT2 (hDGAT2); read-out: DGAT2 IC50) [nM]
CC(c1nc2ccc(N3CCC[C@@H](C(=O)N4CCCC4)C3)nc2[nH]1)n1cccn1 (stereo partly drawn) [Example 58, (R)-(1-(2-(1-(1H-Pyrazol-1-yl)ethyl)-3H-imidazo[4,5-b]pyridin-5-yl)piperidin-3-yl)(pyrrolidin-1-yl)methanone]	86.8	363	–	–
O=C([C@@H]1CCCN(c2ccc3nc(C4(n5cc(F)cn5)CC4)[nH]c3n2)C1)N1CCCC1 [Example 73, (R)-(1-(2-(1-(4-Fluoro-1H-pyrazol-1-yl)cyclopropyl)-3H-imidazo[4,5-b]pyridin-5-yl)piperidin-3-yl)(pyrrolidin-1-yl)methanone]	7.9	96.9	85	–
N#Cc1cnn(C2(c3nc4ccc(N5CCC[C@@H](C(=O)N6CCCC6)C5)nc4[nH]3)CC2)c1 [Example 76, (R)-1-(1-(5-(3-(Pyrrolidine-1-carbonyl)piperidin-1-yl)-3H-imidazo[4,5-b]pyridin-2-yl)cyclopropyl)-1H-pyrazole-4-carbonitrile]	25.1	227	–	–
O=C([C@@H]1CCCN(c2ccc3nc(C4(n5cc(C(F)(F)F)cn5)CC4)[nH]c3n2)C1)N1CCCC1 [Example 78, (R)-Pyrrolidin-1-yl(1-(2-(1-(4-(trifluoromethyl)-1H-pyrazoL-1-yl)cyclopropyl)-3H-imidazo[4,5-b]pyridin-5-yl)piperidin-3-yl)methanone]	9.4	83.8	–	–
O=C([C@@H]1CCCN(c2ccc3nc(C4(c5cccnc5)CC4)[nH]c3n2)C1)N1CCCC1 [Example 81, (R)-(1-(2-(1-(Pyridin-3-yl)cyclopropyl-1)-3H-imidazo[4,5-b]pyridin-5-yl)piperidin-3-yl)(pyrrolidin-1-yl)methanone]	47.7	204	–	–
O=C([C@@H]1CCCN(c2ccc3nc(C4(c5ccccn5)CC4)[nH]c3n2)C1)N1CCCC1 [Example 82, (R)-(1-(2-(1-(Pyridin-2-yl)cyclopropyl)-3H-imidazo[4,5-b]pyridin-5-yl)piperidin-3-yl)(pyrrolidin-1-yl)methanone]	15.8	165	–	–
O=C([C@@H]1CCCN(c2ccc3nc(-c4ccnc(C5CC5)n4)[nH]c3n2)C1)N1CCCC1 [Example 95, (R)-(1-(2-(2-Cyclopropylpyrimidin-4-yl)-3H-imidazo[4,5-b]pyridin-5-yl)piperidin-3-yl)(pyrrolidin-1-yl)methanone]	15.9	18.2	–	–
O=C([C@@H]1CCCN(c2ncc3nc(C4(n5cc(Cl)cn5)CC4)[nH]c3n2)C1)N1CCCC1 [Example 108, (R)-(1-(8-(1-(4-Chloro-1H-pyrazol-1-yl)cyclopropyl)-9H-purin-2-yl)piperidin-3-yl)(pyrrolidin-1-yl)methanone]	2.8	28.7	26.2	–
O=C([C@H]1CN(c2ccc3nc(C4(n5cc(Cl)cn5)CC4)[nH]c3n2)CCO1)N1CCCC1 [Example 141, (R)-(4-(2-(1-(4-Chloro-1H-pyrazol-1-yl)cyclopropyl)-3H-imidazo[4,5-b]pyridin-5-yl)morpholin-2-yl)(pyrrolidin-1-yl)methanone]	10.7	354	301	–
O=C([C@H]1CN(c2ccc3nc(-c4cccc(C(F)F)n4)[nH]c3n2)CCO1)N1CCCC1 [Example 175, (R)-(4-(2-(6-(Difluoromethyl)pyridin-2-yl)-3H-imidazo[4,5-b]pyridin-5-yl)morpholin-2-yl)(pyrrolidin-1-yl)methanone]	71.7	91.3	–	–
[(R)-1-{2-[1-(4-Chloro-1H-pyrazol-1-yl)cyclopropyl]-3H-imidazo[4,5-b]pyridin-5-yl}(2,2,6,6-^2H4)piperidin-3-yl](pyrrolidin-1-yl)methanone [Example 190]	–	–	–	35.9

Now from value to compound, other results behind:

IC50 (DGAT2) [nM]	IC50 (Human DGAT2 (hDGAT2); [1]) [nM]	IC50 (Human DGAT2 (hDGAT2); [2]) [nM]	Compound	IC50 (Human DGAT2 (hDGAT2); read-out: DGAT2 IC50) [nM]
4.6	14.5	20.6	C[C@@H](c1nc2ccc(N3CCC[C@@H](C(=O)N4CCCC4)C3)nc2[nH]1)n1cc(Cl)cn1 [Example 196-A, ((R)-1-(2-((S)-1-(4-Chloro-1H-pyrazol-1-yl)ethyl)-3H-imidazo[4,5-b]pyridin-5-yl)piperidin-3-yl)(pyrrolidin-1-yl)methanone]	–
5.5	33.7	–	C[C@H](c1nc2ccc(N3CCC[C@@H](C(=O)N4CCCC4)C3)nc2[nH]1)n1cc(Cl)cn1 [Example 197, ((R)-1-(2-((R)-1-(4-chloro-1H-pyrazol-1-yl)ethyl)-3H-imidazo[4,5-b]pyridin-5-yl)piperidin-3-yl)(pyrrolidin-1-yl)methanone]	–
7.8	43	–	C[C@@H](c1nc2cnc(N3CCC[C@@H](C(=O)N4CCCC4)C3)nc2[nH]1)n1cc(Cl)cn1 [Example 198, ((R)-1-(8-((S)-1-(4-Chloro-1H-pyrazol-1-yl)ethyl)-9H-purin-2-yl)piperidin-3-yl)(pyrrolidin-1-yl)methanone]	–
2.5	18.9	32.9	C[C@H](c1nc2cnc(N3CCC[C@@H](C(=O)N4CCCC4)C3)nc2[nH]1)n1cc(Cl)cn1 [Example 199, ((R)-1-(8-((R)-1-(4-chloro-1H-pyrazol-1-yl)ethyl)-9H-purin-2-yl)piperidin-3-yl)(pyrrolidin-1-yl)methanone]	–
8.9	101	–	O=C([C@@H]1CCCN(c2ncc3nc(C4(n5cc(F)cn5)CC4)[nH]c3n2)C1)N1CCCC1 [Example 209, (R)-(1-(8-(1-(4-Fluoro-1H-pyrazol-1-yl)cyclopropyl)-9H-purin-2-yl)piperidin-3-yl)(pyrrolidin-1-yl)methanone]	–
–	1370	–	Cn1ncnc1C1(c2nc3ccc(N4CCC[C@@H](C(=O)N5CCCC5)C4)nc3[nH]2)CC1 [Example 223, (R)-(1-(2-(1-(1-Methyl-1H-1,2,4-triazol-5-yl)cyclopropyl)-3H-imidazo[4,5-b]pyridin-5-yl)piperidin-3-yl)(pyrrolidin-1-yl)methanone]	–
